Data: the supplement of paper PMC11665569

How the values were obtained:
Conditions in all cases: treatment time: 5 days
[1] = tested on: H358; experiment: relative viability (fraction of vehicle control); higher = more viable / less inhibited
Description: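 CCK-8 viability of H358 cells with empty vector or constitutively active YAP S127A, treated with KRAS G12C inhibitors for 5 days. Absorbance at 450 nm normalised to vehicle control.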

[2] = tested on: H1792
Description: (§1)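 CCK-8 viability of KRAS G12C-mutant cancer cell lines transfected with control, YAP/TAZ or TEAD1-4 siRNAs and treated with KRAS G12C inhibitors for 5 days; IC50 fitted in Prism after normalising absorbance at 450 nm to vehicle control.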

[3] = tested on: MIAPACA2
Description: as §1

[4] = tested on: H358
Description: as §1

[5] = tested on: KYSE410
Description: as §1

[6] = tested on: H2030
Description: as §1

[7] = tested on: H1373
Description: as §1

[8] = tested on: SW1573; experiment: relative viability (fraction of vehicle control); higher = more viable / less inhibited
Description: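 CCK-8 viability of SW1573 cells transfected with control, YAP/TAZ or TEAD1-4 siRNAs and treated with KRAS G12C inhibitors for 5 days. Values are normalised to vehicle control.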

C=CC(=O)N1CCN(c2ncnc3c(F)c(-c4c(O)cccc4F)c(Cl)cc23)CC1 [ARS1620]
Conditions	IC50 (cell viability, 5 days) [µM]	relative viability
[1], log10 concentration (uM): 0, ectopic expression: YAP S127A	–	0.842
[1], log10 concentration (uM): 0, ectopic expression: empty vector (YAP experiment)	–	0.6
[1], log10 concentration (uM): 0.39794, ectopic expression: YAP S127A	–	0.833
[1], log10 concentration (uM): 0.39794, ectopic expression: empty vector (YAP experiment)	–	0.389
[1], log10 concentration (uM): 0.69897, ectopic expression: YAP S127A	–	0.617
[1], log10 concentration (uM): 0.69897, ectopic expression: empty vector (YAP experiment)	–	0.306
[1], log10 concentration (uM): 1, ectopic expression: YAP S127A	–	0.558
[1], log10 concentration (uM): 1, ectopic expression: empty vector (YAP experiment)	–	0.217
[1], log10 concentration (uM): 1.301029996, ectopic expression: YAP S127A	–	0.383
[1], log10 concentration (uM): 1.301029996, ectopic expression: empty vector (YAP experiment)	–	0.128
[1], log10 concentration (uM): -0.30103, ectopic expression: YAP S127A	–	0.942
[1], log10 concentration (uM): -0.30103, ectopic expression: empty vector (YAP experiment)	–	0.711
[1], log10 concentration (uM): -0.60206, ectopic expression: YAP S127A	–	0.958
[1], log10 concentration (uM): -0.60206, ectopic expression: empty vector (YAP experiment)	–	0.806
[1], log10 concentration (uM): -1, ectopic expression: YAP S127A	–	0.808
[1], log10 concentration (uM): -1, ectopic expression: empty vector (YAP experiment)	–	0.883
[1], log10 concentration (uM): -2, ectopic expression: YAP S127A	–	0.792
[1], log10 concentration (uM): -2, ectopic expression: empty vector (YAP experiment)	–	0.75
[2], siRNA knockdown (Con = control): Con	1.96	–
[2], siRNA knockdown (Con = control): YAP_WWTR1_si1	0.59	–
[2], siRNA knockdown (Con = control): YAP_WWTR1_si2	0.472	–
[3], siRNA knockdown (Con = control): Con	10.4	–
[3], siRNA knockdown (Con = control): TEAD1234_si1	5.67	–
[3], siRNA knockdown (Con = control): TEAD1234_si2	5.42	–
[3], siRNA knockdown (Con = control): YAP_WWTR1_si1	4.42	–
[3], siRNA knockdown (Con = control): YAP_WWTR1_si2	6.97	–
[4], siRNA knockdown (Con = control): Con	0.4	–
[4], siRNA knockdown (Con = control): TEAD1234_si1	0.366	–
[4], siRNA knockdown (Con = control): TEAD1234_si2	0.228	–
[4], siRNA knockdown (Con = control): YAP_WWTR1_si1	0.183	–
[4], siRNA knockdown (Con = control): YAP_WWTR1_si2	0.135	–
[5], siRNA knockdown (Con = control): Con	4.24	–
[5], siRNA knockdown (Con = control): TEAD1234_si1	1.05	–
[5], siRNA knockdown (Con = control): TEAD1234_si2	1.07	–
[5], siRNA knockdown (Con = control): YAP_WWTR1_si1	1.68	–
[5], siRNA knockdown (Con = control): YAP_WWTR1_si2	1.19	–
[6], siRNA knockdown (Con = control): Con	9.87	–
[6], siRNA knockdown (Con = control): TEAD1234_si1	1.05	–
[6], siRNA knockdown (Con = control): TEAD1234_si2	0.237	–
[7], siRNA knockdown (Con = control): Con	1.95	–
[7], siRNA knockdown (Con = control): YAP_WWTR1_si1	0.58	–
[7], siRNA knockdown (Con = control): YAP_WWTR1_si2	0.305	–
[8], log10 concentration (uM): 0, siRNA knockdown: TEAD1-4 siRNA 1	–	0.394
[8], log10 concentration (uM): 0, siRNA knockdown: TEAD1-4 siRNA 2	–	0.45
[8], log10 concentration (uM): 0, siRNA knockdown: YAP/TAZ siRNA 1	–	0.174
[8], log10 concentration (uM): 0, siRNA knockdown: YAP/TAZ siRNA 2	–	0.156
[8], log10 concentration (uM): 0, siRNA knockdown: negative control siRNA	–	0.929
[8], log10 concentration (uM): 0.39794, siRNA knockdown: TEAD1-4 siRNA 1	–	0.297
[8], log10 concentration (uM): 0.39794, siRNA knockdown: TEAD1-4 siRNA 2	–	0.376
[8], log10 concentration (uM): 0.39794, siRNA knockdown: YAP/TAZ siRNA 1	–	0.172
[8], log10 concentration (uM): 0.39794, siRNA knockdown: YAP/TAZ siRNA 2	–	0.15
[8], log10 concentration (uM): 0.39794, siRNA knockdown: negative control siRNA	–	0.952
[8], log10 concentration (uM): 0.69897, siRNA knockdown: TEAD1-4 siRNA 1	–	0.273
[8], log10 concentration (uM): 0.69897, siRNA knockdown: TEAD1-4 siRNA 2	–	0.381
[8], log10 concentration (uM): 0.69897, siRNA knockdown: YAP/TAZ siRNA 1	–	0.186
[8], log10 concentration (uM): 0.69897, siRNA knockdown: YAP/TAZ siRNA 2	–	0.175
[8], log10 concentration (uM): 0.69897, siRNA knockdown: negative control siRNA	–	0.952
[8], log10 concentration (uM): 1, siRNA knockdown: TEAD1-4 siRNA 1	–	0.189
[8], log10 concentration (uM): 1, siRNA knockdown: TEAD1-4 siRNA 2	–	0.351
[8], log10 concentration (uM): 1, siRNA knockdown: YAP/TAZ siRNA 1	–	0.2
[8], log10 concentration (uM): 1, siRNA knockdown: YAP/TAZ siRNA 2	–	0.182
[8], log10 concentration (uM): 1, siRNA knockdown: negative control siRNA	–	0.94
[8], log10 concentration (uM): 1.301029996, siRNA knockdown: TEAD1-4 siRNA 1	–	0.0763
[8], log10 concentration (uM): 1.301029996, siRNA knockdown: TEAD1-4 siRNA 2	–	0.233
[8], log10 concentration (uM): 1.301029996, siRNA knockdown: YAP/TAZ siRNA 1	–	0.136
[8], log10 concentration (uM): 1.301029996, siRNA knockdown: YAP/TAZ siRNA 2	–	0.139
[8], log10 concentration (uM): 1.301029996, siRNA knockdown: negative control siRNA	–	0.464
[8], log10 concentration (uM): -0.30103, siRNA knockdown: TEAD1-4 siRNA 1	–	0.413
[8], log10 concentration (uM): -0.30103, siRNA knockdown: TEAD1-4 siRNA 2	–	0.47
[8], log10 concentration (uM): -0.30103, siRNA knockdown: YAP/TAZ siRNA 1	–	0.236
[8], log10 concentration (uM): -0.30103, siRNA knockdown: YAP/TAZ siRNA 2	–	0.209
[8], log10 concentration (uM): -0.30103, siRNA knockdown: negative control siRNA	–	0.908
[8], log10 concentration (uM): -0.60206, siRNA knockdown: TEAD1-4 siRNA 1	–	0.655
[8], log10 concentration (uM): -0.60206, siRNA knockdown: TEAD1-4 siRNA 2	–	0.614
[8], log10 concentration (uM): -0.60206, siRNA knockdown: YAP/TAZ siRNA 1	–	0.29
[8], log10 concentration (uM): -0.60206, siRNA knockdown: YAP/TAZ siRNA 2	–	0.306
[8], log10 concentration (uM): -0.60206, siRNA knockdown: negative control siRNA	–	0.964
[8], log10 concentration (uM): -1, siRNA knockdown: TEAD1-4 siRNA 1	–	0.683
[8], log10 concentration (uM): -1, siRNA knockdown: TEAD1-4 siRNA 2	–	0.614
[8], log10 concentration (uM): -1, siRNA knockdown: YAP/TAZ siRNA 1	–	0.41
[8], log10 concentration (uM): -1, siRNA knockdown: YAP/TAZ siRNA 2	–	0.417
[8], log10 concentration (uM): -1, siRNA knockdown: negative control siRNA	–	0.976
[8], log10 concentration (uM): -2, siRNA knockdown: TEAD1-4 siRNA 1	–	0.9354
[8], log10 concentration (uM): -2, siRNA knockdown: TEAD1-4 siRNA 2	–	1.01
[8], log10 concentration (uM): -2, siRNA knockdown: YAP/TAZ siRNA 1	–	0.817
[8], log10 concentration (uM): -2, siRNA knockdown: YAP/TAZ siRNA 2	–	0.82
[8], log10 concentration (uM): -2, siRNA knockdown: negative control siRNA	–	1.02
